Converted amounts (≈) assume the structure as drawn. Like-named read-outs stand apart in the source and are kept apart here. Non-standard residues stand in square brackets, D forms with d. Residues, ends and D or L forms follow the SMILES beside them. Dab(3S-OH) = NC[C@H](O)[C@H](N)C(=O)O; Phe(2-F) = N[C@@H](Cc1ccccc1F)C(=O)O; ΔZArg = N=C(N)NCC/C=C(\N)C(=O)O; dOrn = NCCC[C@@H](N)C(=O)O; Dab = NCC[C@H](N)C(=O)O Some results are limits rather than exact numbers.

The results in this text go back to paper PMC6125496 (Antimicrobial Agents and Chemotherapy, 2018).

A short description of data set [1]: in vitro. The settings on record: plasma, pH 7.4. The method, then:
The final incubation volume was 200 μl. All incubations were performed singularly for each compound at each time point. A vehicle control incubation was included using either water or DMSO, along with a control compound known to be metabolized specifically by each species. Each compound was incubated for 0, 15, 30, 60, and 120 min at 37°C. The reactions were stopped by the addition of 40% TCA in water containing an internal standard (NOSO-95216, 1 μM final concentration) for the test compounds, or methanol for the control compounds, at the appropriate time points. The vehicle control incubation was incubated for 120 min only. The termination plates were centrifuged at 3,000 rpm for 45 min at 4°C to precipitate the protein. Following protein precipitation, the test compound sample supernatants were diluted with analytical-grade water, whereas the control compounds were diluted with an internal standard (metoprolol) in water. The test compound samples were analyzed by LC-MS/MS.

The nature of the next data set: in vivo. The settings on record: female, plasma, iv. The method, then:
Pharmacokinetic analyses were performed by Pharmacelsus (Saarbrücken, Germany). […] Blood (100 μl) was collected from three animals per time point (5, 10, 20, 30, 60, and 120 min postdose for mice and 5, 15, 30, 60, 180, and 420 min postdose for rats) in tubes containing K3-EDTA as an anticoagulant. Samples were stored on ice and centrifuged at 6,000 rpm for 10 min at 4°C. A sample volume of 50 μl was mixed with 5 μl of solvent (acetonitrile-H2O-DMSO, [5/4/1, vol/vol/vol] plus 1% formic acid). A volume of 10 μl of solvent containing the internal standard and 50 μl of precipitant (10% TCA) were added to 55 μl of sample. The mixture was vortexed and centrifuged at 6,000 × g (room temperature) for 10 min. The protein-free supernatant was analyzed by LC-MS using an Ultimate 3000RS ultrahigh-performance liquid chromatograph (U-HPLC) coupled with an Orbitrap Q Exactive mass spectrometer.
Analytes were separated on a Accurore phenyl-hexyl analytical column (2.1 by 50 mm, 2.6 μm; Thermo, Germany) using a linear gradient of mobile phase A (acetonitrile-0.2% heptafluorobutyric acid)-mobile phase B (water-0.2% heptafluorobutyric acid), starting from 5% mobile phase A to 97% in 2.2 min, and a flow rate of […]. Peaks were analyzed by mass spectrometry (ESI ionization in MRM mode) using Xcalibur 4.0 software. The products analyzed, [M + 2H]^2+ and [M + 3H]^3+, were 539.8 and 360.2 Da, respectively. PK parameters were calculated using a noncompartmental analysis model and Kinetica 5.0 software (Thermo Scientific, Waltham, MA). The mean plasma concentrations from all three mice at each time point were used in the calculation.

The target in data set [2] is Nav 1.5 human sodium ion channel (Homo sapiens, UniProt Q14524). Briefly: cell-based.
Sequence of Nav 1.5 human sodium ion channel (Q14524 1-2015 isoform Q14524-2): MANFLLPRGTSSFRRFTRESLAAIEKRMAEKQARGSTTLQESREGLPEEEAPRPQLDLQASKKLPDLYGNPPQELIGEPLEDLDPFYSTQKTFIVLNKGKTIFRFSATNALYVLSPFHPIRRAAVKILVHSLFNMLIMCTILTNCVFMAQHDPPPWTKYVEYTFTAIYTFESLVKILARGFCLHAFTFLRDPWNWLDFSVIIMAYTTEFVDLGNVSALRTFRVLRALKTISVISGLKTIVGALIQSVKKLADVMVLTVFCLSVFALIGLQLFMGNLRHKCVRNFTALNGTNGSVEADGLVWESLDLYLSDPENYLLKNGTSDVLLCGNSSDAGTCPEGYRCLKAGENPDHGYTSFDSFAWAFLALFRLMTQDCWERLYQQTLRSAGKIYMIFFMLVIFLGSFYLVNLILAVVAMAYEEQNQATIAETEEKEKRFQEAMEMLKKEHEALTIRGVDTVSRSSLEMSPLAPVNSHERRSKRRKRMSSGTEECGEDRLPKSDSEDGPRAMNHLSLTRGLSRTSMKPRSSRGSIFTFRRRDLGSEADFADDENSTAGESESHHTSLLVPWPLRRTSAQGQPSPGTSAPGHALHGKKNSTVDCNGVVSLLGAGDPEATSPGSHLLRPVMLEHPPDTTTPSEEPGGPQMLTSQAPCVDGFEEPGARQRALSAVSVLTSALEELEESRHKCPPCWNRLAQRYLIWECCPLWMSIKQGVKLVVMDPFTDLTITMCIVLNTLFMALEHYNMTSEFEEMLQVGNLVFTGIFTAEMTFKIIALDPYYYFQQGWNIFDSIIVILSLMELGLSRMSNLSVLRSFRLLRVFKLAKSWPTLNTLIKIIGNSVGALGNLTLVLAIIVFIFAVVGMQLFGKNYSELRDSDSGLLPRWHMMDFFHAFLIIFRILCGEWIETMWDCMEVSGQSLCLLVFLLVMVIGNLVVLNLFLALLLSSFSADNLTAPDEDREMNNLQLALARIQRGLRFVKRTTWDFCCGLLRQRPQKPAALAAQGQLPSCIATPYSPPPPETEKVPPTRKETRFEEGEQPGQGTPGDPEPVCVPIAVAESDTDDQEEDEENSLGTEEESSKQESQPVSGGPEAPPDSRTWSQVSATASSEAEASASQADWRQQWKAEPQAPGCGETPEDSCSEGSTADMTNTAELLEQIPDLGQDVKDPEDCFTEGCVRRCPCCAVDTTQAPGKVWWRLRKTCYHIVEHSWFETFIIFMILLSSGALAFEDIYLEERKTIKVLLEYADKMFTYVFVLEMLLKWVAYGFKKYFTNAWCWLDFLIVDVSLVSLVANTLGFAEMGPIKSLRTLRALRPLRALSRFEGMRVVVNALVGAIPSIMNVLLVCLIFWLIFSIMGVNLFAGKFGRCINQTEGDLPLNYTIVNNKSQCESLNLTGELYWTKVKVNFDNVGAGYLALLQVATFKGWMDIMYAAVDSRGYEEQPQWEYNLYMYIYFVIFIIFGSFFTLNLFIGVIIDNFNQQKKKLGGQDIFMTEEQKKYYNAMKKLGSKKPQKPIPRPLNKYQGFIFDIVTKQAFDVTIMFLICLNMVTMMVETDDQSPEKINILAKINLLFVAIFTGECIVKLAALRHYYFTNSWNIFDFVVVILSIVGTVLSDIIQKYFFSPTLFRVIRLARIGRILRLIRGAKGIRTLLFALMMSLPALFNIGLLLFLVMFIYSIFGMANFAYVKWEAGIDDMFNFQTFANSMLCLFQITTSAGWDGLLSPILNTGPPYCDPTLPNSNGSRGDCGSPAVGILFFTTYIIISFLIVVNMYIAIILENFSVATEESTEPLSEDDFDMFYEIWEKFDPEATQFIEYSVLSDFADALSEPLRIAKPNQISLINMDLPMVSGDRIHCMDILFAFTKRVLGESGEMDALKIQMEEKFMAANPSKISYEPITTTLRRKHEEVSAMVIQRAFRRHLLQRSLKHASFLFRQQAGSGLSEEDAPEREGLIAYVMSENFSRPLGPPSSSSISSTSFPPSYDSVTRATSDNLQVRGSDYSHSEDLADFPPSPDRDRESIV
Method: Inhibition of the Nav 1.5 human sodium ion channel was determined by Eurofins Panlabs in HEK-293 cells stably transfected with human Nav1.5 cDNA (type V voltage-gated sodium channel alpha subunit, GenBank accession number NM_000335) using IonWorks Quattro automated whole-cell patch clamp electrophysiology. […] In this method, the voltage protocol is applied prior to compound addition (Pre), the compounds are added and incubated for 600 s at room temperature, and then the voltage protocol is applied a final time (Post) on the IonWorks Quattro.
For a further data set, the system named is CHO-K1 cells. As to conditions: 512 μM, 24 h; S9 medium negative control 0.7%. The method, then: The test was conducted by Eurofins Panlabs. […] At the end of the incubation period the cells were fixed, and their DNA was stained with Hoechst. The visualization and scoring of the cells was done using an automated fluorescence microscope coupled with proprietary automated image analysis software ([46]). The percent micronucleated cells was calculated.

Data set [3] is described as follows: in vitro. As to conditions: plasma (EDTA anticoagulant), pH 7.4. The method, then:
The […] were performed by Cyprotex Discovery Ltd. (Macclesfield, UK). […] The experiment was performed using equilibrium dialysis (RED device) with the two compartments separated by a semipermeable membrane. Buffer (pH 7.4) was added to one side of the membrane and the plasma solution to the other. After equilibration (4 h), samples were taken from both sides of the membrane. Calibration standards were prepared in plasma and buffer. All incubations were performed in triplicate. A control compound was included in each experiment. Incubation of the control compound samples was terminated with acetonitrile containing an internal standard (metoprolol). Incubation of the test compound samples was terminated with 40% TCA in water containing in internal standard (NOSO-95216; 1 μM final concentration). All samples were centrifuged and further diluted with water prior to analysis. The solutions for each batch of control compounds were combined into two groups (protein free and protein containing) and cassette analyzed by LC-MS/MS using two sets of calibration standards for protein-free (seven points) and protein-containing solutions (seven points).

In another data set the test system is Citrobacter freundii MAU. As to conditions: Ambler class C carbapenem resistant; AmpC overexpressed + TEM-3. The source says: (§1) Reference strains are from the German Collection of Microorganisms and Cell Cultures (DSMZ), the American Type Culture Collection (ATCC), the National Collection of Type Cultures (NCTC), and the Medical and Molecular Microbiology, Faculty of Science and Medicine, University of Fribourg, Switzerland.

The subject of data set [4] is Klebsiella pneumoniae DUB. As to conditions: Ambler class D carbapenemase; OXA-48 + CTX-M15 + TEM-1 + SHV-1 + OXA-1 + CMY-2.
From the text: as §1

The test system of data set [5] is Polymyxin B-resistant E. coli (2).
From the text: as §1

The next data set concerns the target hERG (Homo sapiens, UniProt Q12809). Briefly: in vitro.
Data set [6] can be described thus: in vitro. As to conditions: human, cryopreserved pooled hepatocytes.
Method: The hepatocyte metabolic stability assays were performed by Cyprotex Discovery Ltd. (Macclesfield, UK). This assay utilizes cryopreserved pooled hepatocytes from different species (mouse, rat, dog, monkey, and human), stored in liquid nitrogen prior to use. […] The final incubation volume was 500 μl. Two control compounds were included with each species alongside an appropriate vehicle control. […] The termination plates were centrifuged at 2,500 rpm at 4°C for 30 min to precipitate the protein. Following protein precipitation, the test compound sample supernatants were diluted with analytical-grade water, whereas the control compounds were diluted with an internal standard (metoprolol) in water. The test compound samples were analyzed by liquid chromatography-tandem mass spectrometry (LC-MS/MS).

Sequence of hERG (Q12809 whole entry): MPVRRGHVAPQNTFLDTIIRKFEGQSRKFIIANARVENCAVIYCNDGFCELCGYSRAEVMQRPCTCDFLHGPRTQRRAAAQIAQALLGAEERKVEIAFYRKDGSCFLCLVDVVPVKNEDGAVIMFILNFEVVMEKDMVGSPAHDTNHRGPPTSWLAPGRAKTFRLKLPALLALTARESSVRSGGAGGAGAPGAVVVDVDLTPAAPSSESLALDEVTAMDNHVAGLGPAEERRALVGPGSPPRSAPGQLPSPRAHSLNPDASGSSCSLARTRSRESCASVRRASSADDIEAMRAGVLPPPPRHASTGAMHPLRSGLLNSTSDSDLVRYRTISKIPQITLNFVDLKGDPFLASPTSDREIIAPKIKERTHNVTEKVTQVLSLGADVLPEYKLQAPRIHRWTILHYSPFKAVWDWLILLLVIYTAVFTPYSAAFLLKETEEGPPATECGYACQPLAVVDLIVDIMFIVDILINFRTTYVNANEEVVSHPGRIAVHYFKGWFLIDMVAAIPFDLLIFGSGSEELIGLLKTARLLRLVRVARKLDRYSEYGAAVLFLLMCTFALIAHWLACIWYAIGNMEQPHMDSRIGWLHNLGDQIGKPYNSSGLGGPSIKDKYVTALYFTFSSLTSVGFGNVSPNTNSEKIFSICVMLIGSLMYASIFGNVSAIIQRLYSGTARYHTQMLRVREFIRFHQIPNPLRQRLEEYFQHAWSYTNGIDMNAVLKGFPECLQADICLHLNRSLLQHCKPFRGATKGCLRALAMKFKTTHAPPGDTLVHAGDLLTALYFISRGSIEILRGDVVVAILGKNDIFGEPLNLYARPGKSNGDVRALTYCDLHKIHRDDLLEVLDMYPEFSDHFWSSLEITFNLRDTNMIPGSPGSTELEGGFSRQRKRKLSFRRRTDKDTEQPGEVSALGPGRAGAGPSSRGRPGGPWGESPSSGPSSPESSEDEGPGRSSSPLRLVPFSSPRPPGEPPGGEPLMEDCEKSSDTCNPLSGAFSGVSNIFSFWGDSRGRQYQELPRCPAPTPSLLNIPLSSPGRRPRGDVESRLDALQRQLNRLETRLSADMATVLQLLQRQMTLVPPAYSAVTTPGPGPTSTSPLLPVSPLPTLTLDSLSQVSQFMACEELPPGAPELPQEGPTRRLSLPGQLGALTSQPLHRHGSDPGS
Method for E. coli UTI89: MIC values were determined using Clinical and Laboratory Standards Institute (CLSI) broth microdilution methodology, colony direct suspension, as described in CLSI document M07-A10 ([42]).
Method for hERG: Inhibition of the human ether-a-go-go-related gene (hERG) cardiac potassium ion channel was determined by Eurofins Panlabs (Eurofins Panlabs, Inc., St. Charles, MO) in CHO-K1 (Chinese hamster ovary) cells stably transfected with human hERG cDNA using QPatch automated whole-cell patch clamp electrophysiology as described in reference [45]. […] In this method, the extracellular solution (control) is applied first and the cell is stabilized in the solution for 5 min. Then the test compound is applied from low to high concentrations sequentially on the same cell, with 5 min for each test concentration, at room temperature.

For the molecule `N=C(N)NCC/C=C(\NC(=O)[C@H](CCCCN)NC(=O)[C@H](Cc1ccccc1F)NC(=O)[C@@H]1CCCN1C(=O)[C@@H](CCCN)NC(=O)CNC(=O)[C@H](CCN)NC(=O)[C@@H](NC(=O)[C@@H](N)CCCCN)[C@@H](O)CN)C(=O)O` [NOSO-502] (H-K[Dab(3S-OH)][Dab]G[dOrn]P[Phe(2-F)]K[ΔZArg]-OH), the MIC in the data set on E. coli UTI89 was determined as 4 µg/mL (≈ 3.71 µM); in the data set with Citrobacter freundii MAU, 1 µg/mL; in data set [4], 0.5 µg/mL. Further, the half-life at 10 μM in the data set “in vitro [1]” (dog) was found to be 158 min; in “in vitro [1]” (human), 79 min; in the data set “in vitro [1]” (monkey) it was 96 min; in “in vitro [1]” (mouse) it was 54 min; in “in vitro [1]” (rat) it was 36 min. Besides, the exposure AUC(0-t) came to 8880 ng·h/mL in “in vivo” (CD-1, mouse, 30 mg/kg) and 7990 ng·h/mL in “in vivo” (Sprague-Dawley, rat, 15 mg/kg). Moreover, the Cmax in “in vivo” (CD-1, mouse, 30 mg/kg) came to 23500 ng/mL; in the data set “in vivo” (Sprague-Dawley, rat, 15 mg/kg) it was 40700 ng/mL. The Vd stood at 0.66 L/kg in “in vivo” (CD-1, mouse, 30 mg/kg) and 0.94 L/kg in the data set “in vivo” (Sprague-Dawley, rat, 15 mg/kg). In addition, the clearance in “in vivo” (CD-1, mouse, 30 mg/kg) was 18.8 mL/min/kg; in “in vivo” (Sprague-Dawley, rat, 15 mg/kg), 32 mL/min/kg. The half-life came to 25 min in “in vivo” (CD-1, mouse, 30 mg/kg) and 90 min in “in vivo” (Sprague-Dawley, rat, 15 mg/kg). In addition, the IC50 in [2] was greater than 512 µM. In addition, in the data set on CHO-K1 cells, the cells with micronuclei was 0.61%. Further, the fraction unbound at 4 h, 2 μM in “in vitro [3]” (dog) came to 0.176; in the data set “in vitro [3]” (human), 0.187; in “in vitro [3]” (mouse), 0.198; in the data set “in vitro [3]” (rat) it was 0.205. For the same molecule, the “MIC range” value in data set [5] (Polymyxin B-resistant (2)) lay within 4 to 8 µg/mL. Moreover, the inhibition at 5 min, 256 µM at hERG came out at 2.6%. In addition, the inhibition at 5 min, 512 µM at hERG was found to be 1.9%. In the data set “in vitro [6]”, this molecule gave a half-life at 1 μM of 329 min.

For polymyxin B [PMB], the minimal inhibitory concentration (MIC) (in the data set with Citrobacter freundii MAU; in [4]) was 0.5 µg/mL in each case. In data set [5] (2 polymyxin B-resistant isolates), the “MIC range” value is 4 to 32 µg/mL.

For orientation: MIC means the lowest concentration found to suppress growth. Usually half-life stands for the time needed for the level to fall by half in the phase considered. As a reminder, the AUC(0-t) is the area under the concentration-time curve up to a stated or last time point. Low readings indicate less exposure, high ones more exposure. Usually Cmax stands for the peak of the concentration-time curve. One may read the Vd as the apparent volume that relates the amount in the body to the concentration in plasma or blood. High values mean extensive tissue distribution, low ones confinement near the circulation. In general, clearance refers to the rate of elimination divided by the concentration. Low values mean inefficient removal, high ones efficient removal. As usually defined, the IC50 is the concentration that inhibits the measured activity by half. Broadly, the fraction unbound is the share of the substance not bound to proteins or other matrix. Low readings indicate little free substance, high ones much free substance. A word on the inhibition: it is the percentage by which the read-out fell short of the control.
